According to article PMC6753678, “Fueling Open Innovation for Malaria Transmission-Blocking Drugs: Hundreds of Molecules Targeting Early Parasite Mosquito Stages” (Frontiers in Microbiology, 2019):

Columns and labels:
[1] = tested on: P. falciparum late stage (stages IV-V) gametocytes; experiment: P. falciparum late stage gametocyte ATP depletion assay (Pf GC-ATP); conditions: 1: YES; 0: NO; >10-fold selectivity over cytotoxicity
[2] = tested on: P. falciparum late stage (stages IV-V) gametocytes; set-up: method as in Almela et al 2016; conditions: P. falciparum late stage gametocyte ATP assay, TCAMS screen; ref Almela et al 2016; read-out: Pf GCT ATP IC50; cited from earlier work
[3] = tested on: HepG2 cells; experiment: HepG2 cytotoxicity assay; conditions: HepG2 cytotoxicity unified across screens; >25 set to 25.00
Procedure, shortened: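 Percent inhibition derived from fluorescent viability readout, normalised to DMSO (negative) and 50 μM doxorubicin (positive). Compound incubation lasted 48 h at 37°C, 5% CO2, with 2,500 HepG2 cells/well in MEM plus 10% FBS and 1% NEAA.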

Structure (SMILES) | Is compound selective in assay? Pf GC-ATP active? [1] | IC50 [2] | Unified cytotox [3]
CS(=O)(=O)CCNCc1nc(-c2ccc3c(=O)[nH]cnc3c2)cs1 [TCMDC-138539] | 0 (0: NO) | 2.68 µM | 4.20 µM
Cl.O=C(NCCCCN1CCC(c2ccc3c(c2OCCO)CCCC3)CC1)c1ccc2oc(-c3ccc(C(F)(F)F)cc3)cc2c1 [TCMDC-138771] | 1 (1: YES) | 0.63 µM | 6.59 µM
C=C(C)Cn1cc(C2CCN(CCN3CCC(CNC(=O)c4ccc(-c5ccc(C#N)cc5)cc4)CC3)CC2)c2ccccc21 [TCMDC-138854] | 0 (0: NO) | 2.93 µM | 3.70 µM
O=C(NCCCCN1CCC(c2c[nH]c3ccc(-c4ccccc4)cc23)CC1)c1ccc(-c2ccccc2)cc1.O=C(O)C(=O)O [TCMDC-139064] | 0 (0: NO) | 1.83 µM | 9.40 µM
CCCCCCCN1CC[C@@H](CCCc2ccnc3ccc(OC)cc23)[C@@H](CCN)C1.O=C(O)C(=O)O [TCMDC-139278] | 1 (1: YES) | 0.27 µM | 2.98 µM
COc1ccc(COc2cc(NCCCN)nc3ccccc23)cc1 [TCMDC-139286] | 1 (1: YES) | 0.56 µM | 13.98 µM
O=C(/C=C/c1ccc(Cl)c(Cl)c1)NCCCCCN1CCCC(CNS(=O)(=O)c2cccc(C(F)(F)F)c2)C1 (stereo not drawn) [TCMDC-139597] | 0 (0: NO) | 8.63 µM | 3.80 µM
CC(C)CCNC(=O)c1cnc2c(O)cccc2c1Nc1cccc(NC(=O)c2ccc(F)cc2)c1.O=C(O)C(F)(F)F [TCMDC-139606] | 0 (0: NO) | 1.27 µM | 5.27 µM
O=C(Nc1ccc(Oc2ccccc2)cc1)N(CCN1CCCC1)Cc1ccc(-c2ccc(CN3CCNCC3)cc2)cc1.O=C(O)C(F)(F)F [TCMDC-139652] | 0 (0: NO) | 1.02 µM | 7.08 µM
COc1ccc(CCNC(C)Cc2ccc(C(=O)Nc3ccc(CC(C)NCCc4cccc(Cl)c4)cc3)cc2)cc1 (stereo not drawn) [TCMDC-139750] | 0 (0: NO) | 0.62 µM | 2.40 µM
CC(CCCC(=O)Nc1ccc(CC(C)NCCc2cccc(Cl)c2)cc1)NCCc1cccc(Cl)c1 (stereo not drawn) [TCMDC-139798] | 0 (0: NO) | 0.82 µM | 4.50 µM
CC(CCCCC(=O)Nc1ccc(CC(C)NCCc2cccc(Cl)c2)cc1)NCCc1cccc(Cl)c1 (stereo not drawn) [TCMDC-139799] | 0 (0: NO) | 1.66 µM | 6.59 µM
CCCCCCCN1CC[C@@H](CCCc2ccnc3ccc(OCC4CCCNC4)cc23)[C@@H](CC)C1.Cl (stereo partly drawn) [TCMDC-139816] | 1 (1: YES) | 0.3 µM | 4.18 µM
CCCCCCCN1CC[C@@H](CCCc2ccnc3ccc(OCCC4CCNCC4)cc23)[C@@H](CC)C1.Cl [TCMDC-139819] | 1 (1: YES) | 0.42 µM | 4.50 µM
CCCCCCCN1CC[C@@H](CCCc2ccnc3ccc(OCCCCN/C(N)=N/O)cc23)[C@@H](CC)C1.O=C(O)C(=O)O [TCMDC-139839] | 1 (1: YES) | 0.47 µM | 17.20 µM
CC(Cc1ccc(COc2ccc(CC(CO)NCCc3cccc(Cl)c3)cc2)cc1)NCCc1cccc(Cl)c1.Cl (stereo not drawn) [TCMDC-139844] | 0 (0: NO) | 1.39 µM | 3.50 µM

Structure (SMILES) | Is compound selective in assay? Pf GC-ATP active? [1] | IC50 [2] | Unified cytotox [3]
Cl.O=C(/C=C/c1ccc(Cl)c(Cl)c1)N1CCC(CCN2CCC(c3c[nH]c4cnccc34)CC2)CC1 [TCMDC-140136] | 1 (1: YES) | 0.2 µM | 7.21 µM
Cc1cccc2[nH]cc(C3CCN(CC4CCC(NC(=O)/C=C/c5ccc(Cl)c(Cl)c5)CC4)CC3)c12.Cl (stereo not drawn) [TCMDC-140137] | 0 (0: NO) | 1.45 µM | 2.95 µM
COc1cc(NCC(C)CNCc2cn(Cc3ccccc3)c3ccccc23)nc2ccccc12 (stereo not drawn) [TCMDC-140496] | 0 (0: NO) | 1.71 µM | 5.00 µM
CN(C)CCN(Cc1ccccc1-c1ccc(CNCCc2ccccc2)cc1)C(=O)c1ccccc1.O=C(O)C(F)(F)F [TCMDC-140532] | 0 (0: NO) | 0.78 µM | 7.54 µM
CC(C)CNCc1cccc(-c2cccc(CN(CCCN3CCN(C)CC3)C(=O)/C=C/c3ccccc3)c2)c1.O=C(O)C(F)(F)F [TCMDC-140541] | 1 (1: YES) | 0.56 µM | 7.47 µM
CN1CCN(CCCN(Cc2cccc(-c3cccc(CNC4CCCC4)c3)c2)C(=O)/C=C/c2ccccc2)CC1.O=C(O)C(F)(F)F [TCMDC-140543] | 0 (0: NO) | 0.8 µM | 7.17 µM
CC(C)CNCc1cccc(-c2ccc(CN(CCCN3CCN(C)CC3)C(=O)/C=C/c3ccccc3)cc2)c1.O=C(O)C(F)(F)F [TCMDC-140545] | 1 (1: YES) | 0.63 µM | 6.65 µM
CC(C)CNCc1ccc(-c2ccc(CN(CCCN3CCN(C)CC3)C(=O)/C=C/c3ccccc3)cc2)cc1.O=C(O)C(F)(F)F [TCMDC-140546] | 0 (0: NO) | 1 µM | 6.99 µM
CC(C)CNCc1ccc(-c2cccc(CN(CCN(C)C)C(=O)CCC3CCCC3)c2)cc1.O=C(O)C(F)(F)F [TCMDC-140553] | 1 (1: YES) | 0.54 µM | 5.50 µM
CC(C)CNCc1cccc(-c2cccc(CN(CCCN3CCN(C)CC3)C(=O)CCC3CCCC3)c2)c1.O=C(O)C(F)(F)F [TCMDC-140554] | 0 (0: NO) | 0.6 µM | 4.55 µM
CN1CCN(CCCN(Cc2cccc(-c3cccc(CNC4CCCC4)c3)c2)C(=O)CCC2CCCC2)CC1.O=C(O)C(F)(F)F [TCMDC-140555] | 0 (0: NO) | 0.81 µM | 7.50 µM
CC(C)CNCc1ccc(-c2ccc(CN(CCCN3CCN(C)CC3)C(=O)CCC3CCCC3)cc2)cc1.O=C(O)C(F)(F)F [TCMDC-140559] | 0 (0: NO) | 0.54 µM | 5.39 µM
CN1CCN(CCCN(Cc2ccc(-c3ccc(CNC4CCCC4)cc3)cc2)C(=O)CCC2CCCC2)CC1.O=C(O)C(F)(F)F [TCMDC-140560] | 1 (1: YES) | 0.53 µM | 6.00 µM
O=C(O)C(F)(F)F.O=C(c1cccs1)N(Cc1cccc(-c2ccc(CNC3CCCC3)cc2)c1)C1CCN(Cc2ccccc2)CC1 [TCMDC-140567] | 0 (0: NO) | 0.85 µM | 7.10 µM
CC(C)CNCc1cccc(-c2cccc(CN(CCN(C)C)C(=O)Nc3ccccc3)c2)c1.O=C(O)C(F)(F)F [TCMDC-140592] | 1 (1: YES) | 0.66 µM | 15.78 µM
